From patent publication US11684581B2, “Drug and layered silicate composite with improved oral bioavailability, oral pharmacological composition containing the composite and method for producing the composite” (KOREA INSTITUTE OF GEOSCIENCE AND MINERAL RESOURCES, priority 2018, dated 2023)
≈ marks a conversion by molar mass, not a printed value.

Tests used:
[1] = In vivo pharmacokinetics analysis after oral administration; conditions: rat, 10 mg/kg based on sorafenib
Procedure: In order to evaluate the absorption and disappearance rate of the drug during oral administration, a in vivo pharmacokinetics analysis was performed on rats. A femoral artery of the rat was cannulated with PESO tubes. Then, sorafenib suspension, and sorafenib and bentonite composite suspension as produced according to Present Example 7 were orally administered into the rat. Thereafter, the rat blood was collected through the PESO tube based on a time schedule and was centrifuged to obtain plasma. After the plasma samples were pretreated, the in-blood drug concentration was analyzed using a mass spectrometer. The dose was set to 10 mg/kg based on the amount of the sorafenib. The plasma was collected over 2 days.
FIG. 7 is a graph showing changes in concentration of a drug in a blood over time in oral administration of sorafenib suspension (●) and sorafenib and bentonite composite suspension (□).

[2] = cited from earlier work
[3] = Solubility of sorafenib in mixed solvent (acetonitrile / 1 N hydrochloric acid / dimethyl sulfoxide); type: physicochemical; conditions: aqueous with cosolvent or surfactant or cyclodextrin; 15% acetonitrile, 83% 1 N hydrochloric acid, 2% dimethyl sulfoxide; read-out: solubility of sorafenib (dissolved concentration)
Procedure: In one example, the solubility of sorafenib when the ratio between acetonitrile and 1 N hydrochloric acid was adjusted while the dimethyl sulfoxide ratio in the total mixed solvent was fixed at 2% was measured. As a result, we dissolved the sorafenib at a concentration of 0.5 mg/mL while at a concentration of 15% acetonitrile and 83% of 1 N hydrochloric acid.

[4] = Drug release (eruption) experiment in eruption solution, HPLC; type: physicochemical; conditions: 50 rpm
Procedure: Drug release experiments were conducted to confirm the release of the drug from the bentonite based on the surrounding environment type. Specifically, the sorafenib 800 μg and the bentonite composite produced under the process condition of Present Example 7 containing 800 μg of sorafenib were dispersed in 40 ml of an eruption solution respectively to form two dispersions. The, each dispersion was shaken at 37° C. at 50 rpm to effect eruption.
The eruption solution used in this experiment was embodied as each of a solution of 0.1 N HCl in water at pH 1.2 and 50 mM phosphate buffer at pH 7.4. Further, 0.5% (v/v) Tween 80 (Polyoxyethyelene Sorbitan Monooleate) was added to the eruption solution to dissolve the sorafenib sufficiently.
Then, the eruption solution was collected based on a time schedule by 0.4 mL, filtered and analyzed by a high performance liquid chromatography.

- AUC(0-inf) ([1]; plasma): 4850 ng·h/mL
- Cmax ([1]; plasma): 100 ± 20 ng/mL
- MRT ([1]; plasma): 20.5 h
- Tmax ([1]; plasma): 6.67 h
- half-life ([1]; plasma): 28.2 ± 6.15 h
- AUC(0-t) ([1]; plasma collected over 2 days): 3120 ng·h/mL
- solubility [3]: 500 µg/mL (≈ 1080 µM)
- released amount of the sorafenib ([4]; 50 mM phosphate buffer pH 7.4, 0.5% (v/v) Tween 80, 37° C., 8 hours): below 30%
- released amount of the sorafenib ([4]; 0.1 N HCl pH 1.2, 0.5% (v/v) Tween 80, 37° C., 8 hours stated for sorafenib alone): below 30%
SMILES: CNC(=O)c1cc(Oc2ccc(NC(=O)Nc3ccc(Cl)c(C(F)(F)F)c3)cc2)ccn1 [Sorafenib, sorafenib]
- In vivo half-life ([2]; background statement): 24 to 48 h
- amount of the drug taken excreted in feces ([2]; oral, during about a week until steady-state): More than 70%
